From patent US11547667B2 (priority 2007, dated 2023)

Tested on: CD4 T cells from OT-II donor mice
Experiment: In vivo CD4 T cell activation, CFSE dilution of transferred OT-II T cells
Set-up: species or system C57BL6J mice
Conditions: footpad injection, with CpG adjuvant, three days after immunization
Protocol: Subsequently, immunization experiments were performed by injecting one footpad with free OVA or with nanoparticles composed of either PLA or PLGA that encapsulated an equivalent amount of OVA as a model antigen. All antigenic mixtures also contained CpG (a TLR9 agonist) as an adjuvant. The animals were injected, sacrificed three days after immunization, and OT-II T cell activation was assessed by flow cytometry in single-cell suspensions from different tissues.
By contrast, activated T cells divide and in the process split the fluorescent dye evenly between the two daughter cells resulting in an incremental decrease in fluorescence intensity upon each successive division. Thus, the greater the left shift in CFSE, fluorescence the stronger T cells were activated.

“free OVA: free chicken ovalbumin (OVA), mixed with CpG adjuvant” was tested, and the “local T cell proliferation in distal lymphoid tissues (brachial lymph node, spleen)” value was “only undivided cells or cells with very low CFSE content”.
